Source: patent US20240197650A1, “Combination of Cinnamaldheyde and Eugenol with Antimycotic Activity” (priority 2021, published 2024)
Converted amounts (≈) assume the structure as drawn. Blank lines part the entries; values can stand above or below the compound they belong to.

What was measured:
[1] = Additional essential oils in combination with cinnamaldehyde or eugenol; conditions: antimycotic activity
[2] = tested on: C. lusitaniae; experiment: Microdilution method MIC/MFC, C. lusitaniae strain; assay type: cell-based; conditions: C. lusitaniae 1
Experimental: (§1) A total of eighteen strains belonging to Candida spp. (15 C. albicans, 2 C. glabrata and 1 C. lusitaniae) derived from a collection of vaginal strains isolated in CHROMAgar Candida (BD Italia SpA, Milan, Italy) were grown on Potato Dextrose Agar (Oxoid Thermofisher SpA, Milan, Italy) at 35° C. for 24 hours.
(§2) The antifungal activity of amphotericin B and of cinnamaldheyde and eugenol were tested with the microdilution method as reported by Bona et al. [Bona et al., Sensitivity of Candida albicans to essential oils: are they an alternative to antifungal agents? J Appl Microbiol. 2016 December, 121(6): 1530-1545] with small changes. All the 18 Candida spp strains were tested. For each isolated, the colonies deriving from cultures (24 hours) in PDA were diluted in saline up to a concentration of 2×10^3 CFU/ml (so obtaining a final concentration of 10 3CGU/ml). Cinnamaldehyde and eugenol were dissolved in DMSO (80% oil, 20% DMSO), then diluted in Sabouraud broth up to a concentration of 8% v/v (so obtaining a final concentration of 4% v/v). Then, in a 96-well microtiter plate ½ serial dilution of amphotericin B (range 32-0.032 μg/ml, for a final range of 16-0.016 μg/ml) and of the essential oils (range 8-0.004% v/v, for a final range of 4-0.002% v/v) were carried out. Each well was then injected with 100 μl of cell suspension. The negative control contained DMSO diluted in Sabouraud broth (at 2% v/v, for a final concentration of 1% v/v). […] Each experiment was carried out in duplicate. The Minimum Inhibitory Concentration (MIC) was determined as the concentration of the oils in the first well which is not cloudy. The Minimum Fungicidal Concentration (MFC) was determined as the lowest concentration of the oils, with the agar culture showing the complete absence of fungal growth. The determination of the amphotericin B MIC was carried out also according to the EUCAST guidelines (cutoff 1 μg/ml) [https://eucast.org/astoffungi/clinicalbreakpointsforantifungals], all the results being consistent.

[3] = tested on: C. albicans; experiment: Disk diffusion method, C. albicans strains; assay type: cell-based
Experimental: as §1
(§3) Colonies were re-suspended in sterile saline at a density corresponding to #0.5 McFarland (opacity standard). #0.5 McF correspond to 1.4×10^6 colony forming units (CFU)/ml for C. albicans, 4.3×10^6 CFU/ml for C. glabrata and 3×10^6 CFU/ml for C. lusitaniae [Guinea J. et al., Rapid antifungal susceptibility determination for yeast isolates by use of Etest performed directly on blood samples from patients with fungemia, J Clin Microbiol. 2010 June, 48(6): 2205-12]. Then, the sensitivity test vs the two oils has been performed. The disk diffusion method was carried out as follows: for each tested strain, 4 plates of Potato Dextrose Agar (PDA) were seeded in 3 directions to produce a confluent growth, by sterile swab soaked in the cell suspension. Sorbent paper disks (Oxoid Thermofisher SpA, Milan, Italy) 6.0 mm diameter were placed on the agar surface and added with 10 μl of each essential oil. Disks soaked with 10 μg amphotericin B were used as positive control. Also disks of chlortrimazole (from 10 μg to 40 μg) were used, but the inhibition rings could not be clearly read due to the formation of a re-growth ring. Disks soaked with 10 μl pure dimethylsulphoxide (DMSO, Sigma-Aldrich, St. Louis, MO, USA) were used as negative control. The plates were incubated at 35° C. for 24 hours. All the experiments were carried out in duplicate. The inhibiting effect of the oils were considered to be effective when the inhibition ring was equal or greater than that caused by amphotericin B. For amphotericin B, an inhibition zone (IZ)≥15 mm was considered as “sensitivity”, from 10 to 14 mm as “intermediate sensitivity” and <10 mm as “resistance” [Kauser et al., Agreement of Direct Antifungal Susceptibility Testing from Positive Blood Culture Bottles with Conventional Method for Candida Species, J Clin Microbiol. 2016 February, 54(2):343-34].

[4] = tested on: C. glabrata; experiment: Disk diffusion method, C. glabrata strains; assay type: cell-based
Experimental: as §1, §3

[5] = tested on: Candida spp.; experiment: Microdilution method MIC/MFC, 18 Candida spp. strains (distribution); assay type: cell-based; conditions: 18 strains
Experimental: as §1, §2

[6] = tested on: C. lusitaniae; experiment: Disk diffusion method, C. lusitaniae strain; assay type: cell-based; conditions: C. lusitaniae 1
Experimental: as §1
Colonies were re-suspended in sterile saline at a density corresponding to #0.5 McFarland (opacity standard). #0.5 McF correspond to 1.4×10^6 colony forming units (CFU)/ml for C. albicans, 4.3×10^6 CFU/ml for C. glabrata and 3×10^6 CFU/ml for C. lusitaniae [Guinea J. et al., Rapid antifungal susceptibility determination for yeast isolates by use of Etest performed directly on blood samples from patients with fungemia, J Clin Microbiol. 2010 June, 48(6): 2205-12]. Then, the sensitivity test vs the two oils has been performed. The disk diffusion method was carried out as follows: for each tested strain, 4 plates of Potato Dextrose Agar (PDA) were seeded in 3 directions to produce a confluent growth, by sterile swab soaked in the cell suspension. Sorbent paper disks (Oxoid Thermofisher SpA, Milan, Italy) 6.0 mm diameter were placed on the agar surface and added with 10 μl of each essential oil. Disks soaked with 10 μg amphotericin B were used as positive control. Also disks of chlortrimazole (from 10 μg to 40 μg) were used, but the inhibition rings could not be clearly read due to the formation of a re-growth ring. Disks soaked with 10 μl pure dimethylsulphoxide (DMSO, Sigma-Aldrich, St. Louis, MO, USA) were used as negative control. The plates were incubated at 35° C. for 24 hours. All the experiments were carried out in duplicate. […]

[7] = tested on: C. glabrata; experiment: Microdilution method MIC/MFC, C. glabrata strains; assay type: cell-based
Experimental: as §1, §2

[8] = tested on: Candida spp.; experiment: Disk diffusion method, 18 Candida spp. strains (distribution); assay type: cell-based
Experimental: as §1, §3

[9] = tested on: C. albicans; experiment: Microdilution method MIC/MFC, C. albicans strains; assay type: cell-based
Experimental: as §1, §2

[10] = 18 strains, disk 10 μl oil or 10 μg amphotericin B, 35° C. 24 hours

Structure (SMILES): CC1=CCC2CC1C2(C)C (stereo not drawn) [α-pinene]
- advantage when administered in combination with cinnamaldehyde or eugenol [1]: did not show any advantage

- MIC [2]: 0.125 µg/mL (≈ 0.135 µM)
- MIC average [5]: 0.052 µg/mL (≈ 0.0563 µM)
- MIC ([7]; C. glabrata 1): 0.032 µg/mL (≈ 0.0346 µM)
- MIC ([7]; C. glabrata 2): 0.125 µg/mL (≈ 0.135 µM)
- MIC ([9]; C. albicans 1): 0.032 µg/mL (≈ 0.0346 µM)
- MIC ([9]; C. albicans 2): 0.032 µg/mL (≈ 0.0346 µM)
- MIC ([9]; C. albicans 3): 0.032 µg/mL (≈ 0.0346 µM)
- MIC ([9]; C. albicans 4): 0.032 µg/mL (≈ 0.0346 µM)
- MIC ([9]; C. albicans 5): 0.016 µg/mL (≈ 0.0173 µM)
- MIC ([9]; C. albicans 6): 0.032 µg/mL (≈ 0.0346 µM)
- MIC ([9]; C. albicans 7): 0.032 µg/mL (≈ 0.0346 µM)
- MIC ([9]; C. albicans 8): 0.016 µg/mL (≈ 0.0173 µM)
- MIC ([9]; C. albicans 9): 0.125 µg/mL (≈ 0.135 µM)
- MIC ([9]; C. albicans 10): 0.032 µg/mL (≈ 0.0346 µM)
- MIC ([9]; C. albicans 11): 0.125 µg/mL (≈ 0.135 µM)
- MIC ([9]; C. albicans 12): ≤0.016 µg/mL
- MIC ([9]; C. albicans 13): 0.064 µg/mL (≈ 0.0693 µM)
- MIC ([9]; C. albicans 14): 0.032 µg/mL (≈ 0.0346 µM)
- MIC ([9]; C. albicans 15): 0.032 µg/mL (≈ 0.0346 µM)
Structure (SMILES): C[C@@H]1[C@H](O)[C@@H](C)/C=C/C=C/C=C/C=C/C=C/C=C/C=C/[C@H](O[C@@H]2O[C@H](C)[C@@H](O)[C@H](N)[C@@H]2O)C[C@@H]2O[C@](O)(C[C@@H](O)C[C@@H](O)[C@H](O)CC[C@@H](O)C[C@@H](O)CC(=O)O[C@H]1C)C[C@H](O)[C@H]2C(=O)O [Amphotericin B, amphotericin B, reference compound]
- MFC [2]: 0.250 µg/mL (≈ 0.271 µM)
- Diameters of the inhibition rings (including 6.0 mm of the disk) ([3]; C. albicans 1): 13.0 mm
- Diameters of the inhibition rings (including 6.0 mm of the disk) ([3]; C. albicans 2): 15.5 mm
- Diameters of the inhibition rings (including 6.0 mm of the disk) ([3]; C. albicans 3): 16.0 mm
- Diameters of the inhibition rings (including 6.0 mm of the disk) ([3]; C. albicans 4): 19.5 mm
- Diameters of the inhibition rings (including 6.0 mm of the disk) ([3]; C. albicans 5): 16.0 mm
- Diameters of the inhibition rings (including 6.0 mm of the disk) ([3]; C. albicans 6): 16.0 mm
- Diameters of the inhibition rings (including 6.0 mm of the disk) ([3]; C. albicans 7): 16.0 mm
- Diameters of the inhibition rings (including 6.0 mm of the disk) ([3]; C. albicans 8): 20.5 mm
- Diameters of the inhibition rings (including 6.0 mm of the disk) ([3]; C. albicans 9): 12.0 mm
- Diameters of the inhibition rings (including 6.0 mm of the disk) ([3]; C. albicans 10): 15.0 mm
- Diameters of the inhibition rings (including 6.0 mm of the disk) ([3]; C. albicans 11): 14.5 mm
- Diameters of the inhibition rings (including 6.0 mm of the disk) ([3]; C. albicans 12): 16.5 mm
- Diameters of the inhibition rings (including 6.0 mm of the disk) ([3]; C. albicans 13): 16.0 mm
- Diameters of the inhibition rings (including 6.0 mm of the disk) ([3]; C. albicans 14): 19.0 mm
- Diameters of the inhibition rings (including 6.0 mm of the disk) ([3]; C. albicans 15): 15.5 mm
- Diameters of the inhibition rings (including 6.0 mm of the disk) ([4]; C. glabrata 1): 15.0 mm
- Diameters of the inhibition rings (including 6.0 mm of the disk) ([4]; C. glabrata 2): 11.0 mm
- MFC average [5]: 0.11 µg/mL (≈ 0.119 µM)
- Diameters of the inhibition rings (including 6.0 mm of the disk) [6]: 10.0 mm
- MFC ([7]; C. glabrata 1): 0.064 µg/mL (≈ 0.0693 µM)
- MFC ([7]; C. glabrata 2): 0.125 µg/mL (≈ 0.135 µM)
- inhibition rings diameter, average (including 6.0 mm of the disk) [8, 10]: 15.4 mm
- inhibition rings diameter, range (including 6.0 mm of the disk) [8, 10]: 10-20.5 mm
- category of the inhibition rings ([8]; all 18 strains, confirmed by microdilution): “sensitivity” or “intermediate sensitivity”
- MFC ([9]; C. albicans 1): 0.064 µg/mL (≈ 0.0693 µM)
- MFC ([9]; C. albicans 2): 0.064 µg/mL (≈ 0.0693 µM)
- MFC ([9]; C. albicans 3): 0.064 µg/mL (≈ 0.0693 µM)
- MFC ([9]; C. albicans 4): 0.125 µg/mL (≈ 0.135 µM)
- MFC ([9]; C. albicans 5): 0.250 µg/mL (≈ 0.271 µM)
- MFC ([9]; C. albicans 6): 0.064 µg/mL (≈ 0.0693 µM)
- MFC ([9]; C. albicans 7): 0.064 µg/mL (≈ 0.0693 µM)
- MFC ([9]; C. albicans 8): 0.032 µg/mL (≈ 0.0346 µM)
- MFC ([9]; C. albicans 9): 0.250 µg/mL (≈ 0.271 µM)
- MFC ([9]; C. albicans 10): 0.032 µg/mL (≈ 0.0346 µM)
- MFC ([9]; C. albicans 11): 0.250 µg/mL (≈ 0.271 µM)
- MFC ([9]; C. albicans 12): 0.016 µg/mL (≈ 0.0173 µM)
- MFC ([9]; C. albicans 13): 0.125 µg/mL (≈ 0.135 µM)
- MFC ([9]; C. albicans 14): 0.125 µg/mL (≈ 0.135 µM)
- MFC ([9]; C. albicans 15): 0.064 µg/mL (≈ 0.0693 µM)
